Results published in patent publication US7253177B2, “Synthesis and antimalarial activity of pyrrolo[3,2-f]quinazoline-1,3-diamine derivatives” (United States of America as Represented by the Secretary of …, priority 2004, dated 2007).
Read-outs that look alike come from different tables or passages of the source.

Tests used:
[1] = Toxicity study in Aotus monkey; assay type: in vivo; conditions: for CBC parameters / body weight change / adverse effects (anorexia, vomiting, diarrhea, behavior): single oral 3 mg/kg; for adverse effects (anorexia, vomiting, diarrhea, behavior): 28 day observation period; for behavior, weight or blood chemistry changes: single oral dose 3 mg/kg
Procedure: (e). Toxicity Study in Aotus monkey: Protocol: Two malaria double cured Aotus weighing 1027-695 grams respectively received single dose of 3 mg/kg orally of the two compounds 2b and 3e. The monkeys were weighed and pre-bleed for CBC and Chemistry (ALT, BUN, Creatinine) determination, and again three, seven and 15 days post treatment. Signs of toxicity such as anorexia, vomiting, diarrhea or behavior changes were recorded. […] (f). Antimalarial Activity against P. falciparum in Aotus monkey: Protocol: Six (6) malaria naive Aotus lemurinus lemurinus (weigh 787-978 grms) were divided into two groups of two Aotus each plus two controls (MN13177 male and MN 13153 male) and infected with 5×10^6 P. falciparum FVO malaria parasites with 1 ml of an appropriate dilution in RPMI media intravenously on the saphenous vein. When their parasitemia reached 5×10^4 parasites/ul, treatment was started. Giemsa-stained thick blood smears were prepared daily with a prick in the ear marginal vein and parasites enumerated by the Earle and Perez method. Group 1 Aotus received 3e at 1 mg/kg once a day×three days. Group 2 Aotus received 2b at 1 mg/kg once a day×three days. The monkeys were weight and pre-bled for CBC and Chemistry (ALT, BUN, Creatinine) determination, and on day 4 post-treatmetne (PT). Bleedings for Pk determinations were carried out on day 1 PT at time 0, 1 hr, 7:30 hr and 24 hr PT. Group 1 (receiving 3e) animals cleared the parasitemias on day 3 post treatment (PT) and remained negative up to 100 days PT. In group 2 (receiving 2b), one animal cleared on day 3 PT and the other one on day 4 PT remaining negative up to 100 days PT. […] (g). Antimalarial Activity against P. vivax in Aotus monkey: Protocol: Fourteen (14) P. falciparum cured Aotus l. lemurinus monkeys (male and female) (weight 700-925 grms) were infected intravenously with 5×10^6 parasites of the P. vivax AMRU-1 strain diluted in RPMI media obtained from a donor and divided into two larger groups of 6 monkeys each (Group I and Group II) (2 monkeys per dose level), that received 3e and 6 monkeys (2 monkeys per dose level) that received 2b daily at 0.5, 1.0 and 3 mg/kg/day for a total of 3 days. Two monkeys were left has untreated controls. Treatment started when parasitemia reached 5,000 parasites×cc/mm on day 6 PI. Daily food intake was documented. Daily Giemsa-stained thick blood smears were prepared from a prick in the marginal ear vein and parasites enumerated by the Earle and Perez method. The animals were weighed at weekly intervals. Blood samples for Pk determination were collected at the following time points as follows: Day 0: CBC and chemistry panel (ALT. Creatinine and BUN); Day 4: CBC and chemistry Panel. CBC and chemistry panels were done the day prior to first dose and 24 hours after last dose and at weekly intervals thereafter. […] The other monkeys received 1 and 3 mg/kg of 3e remained negative until day 100 PT. In Group II, all monkeys except for one that received 3 mg/kg of 2b failed treatment and were retreated on day 3 PT with 3e at either 0.25, 0.5 or 1 mg/kg for three days. In the monkeys that received re-treatment at 0.25 mg/kg, one cleared on day 4 PT but needed to be treated with Mefloquine on day 8 PT due to a low platelet count. The other animals that had not been cleared by day 6 PT were treated with Mefloquine. […] P. vivax is known to be very drug resistant to antifolates. (h). Presumptive Causal Prophylactic Test against P. cynomolgi in Rhesus monkey: Protocol: […]

[2] = system: Plasmodium berghei (KBG-173 strain); assay type: in vivo; conditions: for # Mice Alive Day 30/Total / # Mice Dead/Day Died: oral
Procedure: B. Antimalarial Activities: (a). In Vitro Antimalarial Studies. The in vitro assays were conducted by using a modification of the semiautomated microdilution technique of Desjardins et al and Chulay et al.. Four P. falciparum malaria parasite clones, from CDC Indochina III (W-2), CDC Sierra Leone I (D-6), Southeast Asia Isolates (TM91C235) and RCS (Isolates from Brazil) were utilized in susceptibility testing. They were derived by direct visualization and micromanipulation from patient isolates. The W-2 clone is susceptible to mefloquine but resistant to chloroquine, sulfadoxine, pyrimethamine, and quinine, whereas the D-6 clone is naturally resistant to mefloquine but susceptible to chloroquine, sulfadoxine, pyrimethamine and quinine. Test compounds were initially dissolved in DMSO and diluted 400 fold in RPMI 1640 culture medium supplemented with 25 mM Hepes, 32 mM NaHCO3 and 10% Albumax I (Gibco BRL, Grand Island, N.Y.). These solutions were subsequently serially diluted two-fold with a Biomek 1000 (Beckman, Fullerton, Calif.) over 11 different concentrations. The parasites were exposed to serial dilutions of each compound for 48 hrs and incubated at 37° C. with 5% O2, 5% CO2 and 90% N2 prior to the addition of [^3H]hypoxanthine. After a further incubation of 18 hrs, parasite DNA was harvested from each microtiter well using Packard Filtermate 196 Harvester (Meriden, Conn.) onto glass filters. Uptake of [^3H]hypoxanthine was measured with a Packard Topcount Scintillation. Concentration-response data were analyzed by a non-linear regression logistic dose response model and the IC50 values (50% inhibitory concentrations) for each compound were calculated. (Table 3). (b). In Vivo Antimalarial Studies against P. berghei in mice: The in vivo efficacy of the artelinic acid analogs were determined in a modified Thompson test. This test measures the survivability of mice and parasitemia clearance following administration of drug on days 3-5 post infection. In brief, 5×10^6 P. berghei-infected erythrocytes (KBG-173 strain) were inoculated intraperitoneally to female mice that weighed 24-30 g. By day three post-infection, parasitemia ranged from 1.0-3.7%. Each drug, dissolved in 5% sodium bicarbonate, was administered PO twice daily from day 3-5 post-infection. Total doses for each drug ranged from 1.5-384 mg/kg with 8 mice included in each dosage group. The percent suppression of parasitemia in the treated mice compared to the untreated controls was determined for each test compound; the SD-50 (fifty percent suppression dose) and SD-90 were determined from a non-linear regression logistic dose response fit at day 6 parasitemia data. Survival of mice to day 60 post-infection was considered a cure (C). Compounds were considered active (A) when the survival time of the treated mice was greater than twice the control mice, i.e., 12-14 day (Table 4-5). (c). Sporozoite Induced Test Each compound is ground with a mortar & pestle and suspended in 0.5% hydroxyethylcellulose—0.1% Tween 80 for compounds to be administered PO and those given SC are suspended in peanut oil. Each compound is prepared at 3 different dose levels as requested by WRAIR. Compounds are administered either PO or SC to mice once 4 hr before inoculation of sporozoites. Four-week-old male CD-1 mice, purchased from Charles River and weighing 16-17 g, are placed 5 per cage and allowed to acclimate for 4 days before being treated and then inoculated with sporozoites. They are fed food and water ad-lib and maintained at 76° F. with 12 hr light and 12 hr darkness. The cages and water bottles are changed biweekly. The mice are weighed on Days 0, 3 and 6 then biweekly when blood films are taken. Plasmodium yoelii (17×) is used to infect mice that will be used to infect the mosquitoes. Mice are given a single dose of test compound 4 hr before being inoculated intraperitoneally with 2.5×10^5 sporozoites of Plasmodium yoelii on Day 0. […]

| Compound | CBC parameters [1] | body weight change [1] | adverse effects (anorexia, vomiting, diarrhea, behavior) [1] | behavior, weight or blood chemistry changes [1] | # Mice Alive Day 30/Total ([2]; 1.25 mg/kg/day) | # Mice Alive Day 30/Total ([2]; 80-2.5 mg/kg/day) | # Mice Dead/Day Died ([2]; 80-2.5 mg/kg/day) | drug-related deaths in mice ([2]; in vivo) | # Mice Alive Day 30/Total ([2]; 220-0.625 mg/kg/day) | # Mice Dead/Day Died ([2]; 220-0.625 mg/kg/day) |
| --- | --- | --- | --- | --- | --- | --- | --- | --- | --- | --- |
| CCOC(=O)Nc1nc(NC(=O)OCC)c2c(ccc3c2ccn3Cc2ccccc2C(F)(F)F)n1 [Compound 2b] | remained within normal ranges | No significant changes in body weight | No adverse effects | no behavior, weight or blood chemistry changes | 3/5 | 5/5 | None |  |  |  |
| CC(=O)N(C(C)=O)c1nc(N(C(C)=O)C(C)=O)c2c(ccc3c2ccn3Cc2ccccc2C(F)(F)F)n1 [Compound 3e, 1,3-Bis(diacetylamino)-7-(2-trifluoromethyl)benzyl-7H-pyrrolo[3,2-f]quinazoline] | remained within normal ranges | No significant changes in body weight | No adverse effects | no behavior, weight or blood chemistry changes |  |  |  | no drug-related deaths | 5/5 | None |
